21 molecules from patent US5164388A, “Heterocyclic peptide renin inhibitors” (Abbott Laboratories, priority 1991, dated 1992) can be followed below.

In the assay the target is T1, human renal renin (Homo sapiens, UniProt P00797).
T1 construct: human renal renin, free from acid proteolytic activity; from tissue
T1 sequence (P00797 67-406): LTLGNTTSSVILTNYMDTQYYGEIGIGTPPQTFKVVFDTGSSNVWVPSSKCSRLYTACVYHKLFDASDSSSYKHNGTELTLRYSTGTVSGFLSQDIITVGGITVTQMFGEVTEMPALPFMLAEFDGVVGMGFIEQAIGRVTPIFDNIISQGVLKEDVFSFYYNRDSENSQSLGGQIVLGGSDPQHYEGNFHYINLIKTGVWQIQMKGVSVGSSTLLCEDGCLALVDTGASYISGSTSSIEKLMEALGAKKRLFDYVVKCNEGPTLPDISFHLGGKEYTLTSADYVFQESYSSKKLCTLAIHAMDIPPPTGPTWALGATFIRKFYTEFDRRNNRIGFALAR
The experiment in a line: Inhibition of human renal renin in vitro (angiotensin I formed, radioimmunoassay). In kind it is biochemical. The settings on record: human angiotensinogen substrate, 37 degrees C., pH 6.0. As for the experimental part:
The novel compounds of the present invention are also useful for treating congestive heart failure. […] At the end of the incubation, the amount of angiotensin I formed is measured by radioimmunoassay and the molar concentration required to cause 50% inhibition, expressed as the IC50, is calculated.
`CCCCC(C(=O)N[C@@H](CC1CCCCC1)[C@@H](O)[C@@H](O)CC(C)C)N1CCN(C(=O)OC(C)(C)C)[C@@H](Cc2ccccc2)C1` (stereo partly drawn) [Example 34A, 2-(3S-Benzyl-4-N-tert-butyloxycarbonyl-piperazin-1-yl)-hexanoic acid Amide of 2(S)-Amino-1-cyclohexyl-3(R),4(S)-dihydroxy-6-methylheptane] yielded an IC50 of 100 nM.

The molecule `CCCCC(C(=O)N[C@@H](CC1CCCCC1)[C@@H](O)[C@@H](O)CC(C)C)N1CCN(C(=O)N(C)C)[C@H](Cc2ccccc2)C1` (stereo partly drawn) [Example 35A, 2-(3R-Benzyl-4-N-dimethylaminocarbonyl-piperazin-1-yl)-hexanoic acid Amide of 2(S)-Amino-1-cyclohexyl-3(R),4(S)-dihydroxy-6-methylheptane] registered an IC50 of 91 nM.

Consider `CC(C)C[C@H](O)[C@H](O)[C@H](CC1CCCCC1)NC(=O)C(Cc1cscn1)N1CCN(Cc2ccccc2)[C@H](Cc2ccccc2)C1` (stereo partly drawn) [Example 36, 3-(4-Thiazolyl)-2-(R,S)-(3R-benzyl-4-N-benzylpiperazin-1-yl)-propionic acid Amide of 2(S)-Amino-1-cyclohexyl-3(R),4(S)-dihydroxy-6-methylheptane], for which the 50% inhibitory concentration (IC50) turned out to be 330 nM.

`CCCCC(C(=O)N[C@@H](CC1CCCCC1)[C@@H](O)[C@@H](O)CC(C)C)N1CCN(C(=O)N2CCOCC2)[C@H](Cc2ccccc2)C1` (stereo partly drawn) [Example 38A, 2-(3R-Benzyl-4-N-(morpholin-1-yl-carbonyl)-piperazin)-1-yl-hexanoic acid Amide of 2(S)-Amino-1-cyclohexyl-3(R),4(S)-dihydroxy-6-methylheptane] displayed a half-inhibitory concentration (IC50) of 6.2 nM.

Take `CCCC[C@@H](C(=O)N[C@@H](CC1CCCCC1)[C@@H](O)[C@@H](O)CC(C)C)N1CCN(C(=O)OC(C)(C)C)[C@H](Cc2ccccc2)C1=O` [Example 44, 2(S)-(3R-Benzyl-4N-tert-butyloxycarbonyl-2-keto-piperazin-1-yl)-hexanoic acid Amide of 2(S)-Amino-1-cyclohexyl-3(R),4(S)-dihydroxy-6-methylheptane]: the IC50 worked out at 15 nM.

As to `CC(C)C[C@H](O)[C@H](O)[C@H](CC1CCCCC1)NC(=O)[C@@H](Cc1c[nH]cn1)N1CCN(C(=O)OC(C)(C)C)[C@H](Cc2ccccc2)C1=O` [Example 45, 3R-(4-Imidazolyl)-2(R)-(3R-benzyl-4-N-tert-butyloxycarbonyl-2-keto-piperazin-1-yl)-propionic acid Amide of 2(S)-Amino-1-cyclohexyl-3(R),4(S)-dihydroxy-6-methylheptane], half-maximal inhibition (IC50) required 13 nM.

For the molecule `CCCC[C@@H](C(=O)N[C@@H](CC1CCCCC1)[C@@H](O)[C@@H](O)CC(C)C)N1CCN(C(=O)N2CCN(C)CC2)[C@H](Cc2ccccc2)C1=O` [Example 47, 2(S)-(3R-Benzyl-4-N-(4-(N'-methyl)-piperazin-1-yl-carbonyl)-2-keto-piperazin-1-yl)-hexanoic acid Amide of 2(S)-Amino-1-cyclohexyl-3(R),4(S)-dihydroxy-6-methylheptane], the IC50 stood at 81 nM. This IC50 lies about 6.2-fold higher than the previous one.

Molecule `CCCC[C@@H](C(=O)N[C@@H](CC1CCCCC1)[C@@H](O)[C@@H](O)CC(C)C)N1CCN(C(=O)N(C)CCOCOC)[C@H](Cc2ccccc2)C1=O` [Example 48, 2(S)-(3R-Benzyl-4-N-(N-methyl-N-(methoxymethoxyethyl)-aminocarbonyl)-2-keto-piperazin-1-yl)-hexanoic acid Amide of 2(S)-Amino-1-cyclohexyl-3(R),4(S)-dihydroxy-6-methylheptane] came in with an IC50 of 22 nM.

Turning to `CC(C)C[C@H](O)[C@H](O)[C@H](CC1CCCCC1)NC(=O)C(Cc1cscn1)N1CCN(C(=O)N2CCOCC2)[C@H](Cc2ccccc2)C1=O` (stereo partly drawn) [Example 49B, 3-(4-Thiazolyl)-2-(3R-benzyl-4-N-morpholin-1-yl-carbonyl-2-keto-piperazin-1-yl)-propionic acid Amide of 2(S)-Amino-1-cyclohexyl-3(R),4(S)-dihydroxy-6-methylheptane], the concentration for half-maximal inhibition (IC50) turned out to be 32 nM.

`CCCC[C@@H](C(=O)N[C@@H](CC1CCCCC1)[C@@H](O)[C@@H](O)CC(C)C)N1CCN(C(=O)N2CCOCC2)[C@H](Cc2ccccc2)C1=O` [Example 50, 2(S)-(3R-Benzyl-4-N-morpholin-1-yl-carbonyl-2-keto-piperazin-1-yl)-hexanoicacid Amide of 2(S)-Amino-1-cyclohexyl-3(R),4(S)-dihydroxy-6-methylheptane] yielded a concentration for half-maximal inhibition (IC50) of 22 nM. The IC50 values of the last two molecules are within 1.5-fold of each other.

Turning to `CC(C)C[C@H](O)[C@H](O)[C@H](CC1CCCCC1)NC(=O)[C@H](Cc1c[nH]cn1)N1CCN(C(=O)N2CCOCC2)[C@H](Cc2ccccc2)C1=O` [Example 51, 3-(4-Imidazolyl)-2(S)-(3R-benzyl-4-N-morpholin-1-yl-carbonyl-2-keto-piperazin-1-yl) -propionic Acid Amide of 2(S)-Amino-1-cyclohexyl-3(R),4(S)-dihydroxy-6-methylheptane], the IC50 is 230 nM.

In turn, `CC(C)C[C@H](O)[C@H](O)[C@H](CC1CCCCC1)NC(=O)[C@H](Cc1cnc[nH]1)N1CC[C@H](Cc2ccccc2)C1=O` [Example 73, (2S)-2-(Imidazol-4-ylmethyl)-2-((3S)-phenylmethyl-2-oxo-pyrrolidin-1-yl)acetic acid amide of (2S,3R,4S)-2-amino-1-cyclohexyl-3,4-dihydroxy-6-methylheptane] came in with a concentration for half-maximal inhibition (IC50) of 67 nM.

On to `CC(C)C[C@H](O)[C@H](O)[C@H](CC1CCCCC1)NC(=O)[C@H](Cc1cnc[nH]1)N1C[C@H](Cc2ccccc2)N(CC(C)C)C1=O` [Example 118, (2S)-2-(Imidazol-4-ylmethyl)-2-(3-isobutyl-(4S)-phenylmethylimidazolidin-2-one-1-yl)acetic Acid Amide of (2)-Amino-1-cyclohexyl-3(R),4(S)-dihydroxy-6-methylheptane], for which it took 150 nM to reach half-maximal inhibition (IC50). Compared with the last molecule, the IC50 is about 2.2-fold higher.

On to `CCN1C[C@@H]([C@H](O)[C@H](CC2CCCCC2)NC(=O)[C@H](Cc2cnc[nH]2)N2C[C@H](Cc3ccccc3)N(CC(C)C)C2=O)OC1=O` [Example 119, (2S)-2-(Imidazol-4-ylmethyl)-2-(3-isobutyl-(4S)-phenylmethylimidazolidin-2-one-1-yl)acetic Acid Amide of (2'S,1'R,5S)-3-Ethyl-5-(1'-hydroxy-2'-amino-3'-cyclohexylpropyl)oxazolidin-2-one], for which the IC50 was 150 nM.

In turn, `CC(C)C[C@H](O)[C@H](O)[C@H](CC1CCCCC1)NC(=O)[C@H](Cc1c[nH]cn1)N1C[C@H](Cc2ccccc2)NC1=O` [Example 120, (2S)-2-(Imidazol-4-ylmethyl)-2-((4S)-phenylmethylimidazolidin-2-one-1-yl)acetic Acid Amide of (2S)-Amino-1-cyclohexyl-3(R),4(S)-dihydroxy-6-methylheptane] returned an IC50 of 650 nM. This IC50 lies about 4.3-fold higher than the previous one.

For the molecule `CC(C)C[C@H](O)[C@H](O)[C@H](CC1CCCCC1)NC(=O)[C@H](Cc1c[nH]cn1)N1CC[C@@H](Cc2ccccc2)C1=O` [Example 121, (2S)-2-(Imidazol-4-ylmethyl)-2-((3R)-phenylmethyl-2-oxopyrrolidin-1-yl)acetic Acid Amide of (2S)-Amino-1-cyclohexyl-3(R),4(S)-dihydroxy-6-methylheptane], it took 430 nM to reach half-maximal inhibition (IC50).

The molecule `CC(C)C[C@H](O)[C@H](O)[C@H](CC1CCCCC1)NC(=O)[C@H](Cc1c[nH]cn1)N1C[C@H](Cc2ccccc2)CC1=O` [Example 122, (2S)-2-(Imidazol-4-ylmethyl)-2-((4R)-phenylmethyl-2-oxopyrrolidin-1-yl)acetic Acid Amide of (2S)-Amino-1-cyclohexyl-3(R),4(S)-dihydroxy-6-methylheptane] had a half-inhibitory concentration (IC50) of 580 nM.

The molecule `CCCCNC(=O)[C@H](C[C@H](O)[C@H](CC1CCCCC1)NC(=O)C(Cc1cscn1)N1CCN(C(=O)N2CCOCC2)[C@H](Cc2ccccc2)C1=O)C(C)C` (stereo partly drawn) [Example 129, 3-(3-Thiazolyl)-2-(3R-benzyl-4-N-morpholin-1-yl-carbonyl-2-keto-piperazin-1-yl)-propionic acid Amide of Butyl 5(S)-amino-6-cyclohexyl-4(S)-hydroxy-2(R)-isopropylhexan-amide] displayed an IC50 of 1.3 nM.

On to `CCCCNC(=O)[C@H](C[C@H](O)[C@H](CC1CCCCC1)NC(=O)C(Cc1cscn1)N1CCN(S(=O)(=O)c2ccc(C)cc2)[C@H](Cc2ccccc2)C1=O)C(C)C` (stereo partly drawn) [Example 130, 3-(4-Thiazolyl)-2-(3R-benzyl-4-N-p-toluene-sulfonyl-2-keto-piperazin-1-yl)-propionic acid Amide of Butyl 5(S)-amino-6-cyclohexyl-4(S)-hydroxy-2(R)-isopropylhexan-amide], for which half-maximal inhibition (IC50) required 0.73 nM. This IC50 lies about 1.8-fold lower than the previous one.

Molecule `Cc1ccc(S(=O)(=O)N2CCN(C(Cc3cscn3)C(=O)N[C@@H](CC3CCCCC3)[C@@H](O)[C@@H](O)CC(C)C)C(=O)[C@H]2Cc2ccccc2)cc1` (stereo partly drawn) [Example 131, 3-(3-Thiazolyl)-2-(3R-benzyl-4-N-p-toluene-sulfonyl-2-keto-piperazin-1-yl)-propionic acid Amide of 2(S)-amino-1-cyclohexyl-3(R),4(S)-dihydroxyl-6-methylheptane] returned a 50% inhibitory concentration (IC50) of 3 nM. This IC50 is about 4.1-fold higher than that of the molecule before.

In turn, `CCCC[C@@H](C(=O)N[C@@H](CC1CCCCC1)[C@@H](O)[C@@H](O)CC(C)C)N1CCCN(C(=O)OC(C)(C)C)[C@H](Cc2ccccc2)C1=O` [Example 132, 2(S)-(3R-Benzyl-4N-tert-butyloxycarbonyl-2-keto-homopiperazin-1-yl)-hexanoic acid Amide of 2(S)-Amino-1-cyclohexyl-3(R),4(S)-dihydroxy-6-methylheptane] registered an IC50 of 340 nM.
